Holding throughout (type): cell-based
Test [1] concerns the target T1, α4β1 (Homo sapiens, UniProt P05556+P13612).
T1 construct: Jurkat™ lymphoma T cells express high levels of α4β1 integrin; endogenous in cells; host or cells: Jurkat cells
In words: α4β1-dependent Jurkat adhesion to rs-hu-VCAM-1. Conditions: read-out: EC50, adhesion of Jurkat cells to human VCAM-1. The text has this:
Jurkat™ lymphoma T cells express high levels of α4β1 integrin and strongly adhere to VCAM-1 in an α4 integrin-dependent fashion.

Test [2] addresses T2, activated α4β1 on Jurkat cells (Homo sapiens, UniProt P05556+P13612).
T2 construct: Jurkat™ lymphoma T cells express high levels of α4β1 integrin; endogenous in cells; host or cells: Jurkat cells
In words: α4β1-FN capture assay in human serum (Jurkat cells, FACS). The settings on record: 50% human serum. As for the experimental part: The α4β1 receptors on Jurkat™ cell surfaces can capture, in solution, the endogenous FN present in serum.
An equal volume of assay buffer containing 50% human serum, the antibody 15/7 (2×, 20 μg/ml) and MnCl2 (2×, 3 mM) was then added to each well. These reagents served as α4 integrin activating agents, allowing the receptor to capture FN from the serum. The plate was then incubated for another 30 minutes at RT.

Test [3] concerns the target T1, α4β1. In words: α4β1-dependent Jurkat cell adhesion to human fibronectin. Conditions: TS2/16-activated α4β1, anti-α5 antibody present; read-out: EC50, Jurkat adhesion to FN. The protocol: Jurkat™ cells adhere to fibronectin (FN) in an […] fashion.
5 μg/mL of an inhibitory antibody against α5 integrin (BD Pharmingen, Franklin Lakes, N.J.) is added to the buffer to prevent α5-dependent adhesion to FN.

T1 sequence (P13612 34-1032): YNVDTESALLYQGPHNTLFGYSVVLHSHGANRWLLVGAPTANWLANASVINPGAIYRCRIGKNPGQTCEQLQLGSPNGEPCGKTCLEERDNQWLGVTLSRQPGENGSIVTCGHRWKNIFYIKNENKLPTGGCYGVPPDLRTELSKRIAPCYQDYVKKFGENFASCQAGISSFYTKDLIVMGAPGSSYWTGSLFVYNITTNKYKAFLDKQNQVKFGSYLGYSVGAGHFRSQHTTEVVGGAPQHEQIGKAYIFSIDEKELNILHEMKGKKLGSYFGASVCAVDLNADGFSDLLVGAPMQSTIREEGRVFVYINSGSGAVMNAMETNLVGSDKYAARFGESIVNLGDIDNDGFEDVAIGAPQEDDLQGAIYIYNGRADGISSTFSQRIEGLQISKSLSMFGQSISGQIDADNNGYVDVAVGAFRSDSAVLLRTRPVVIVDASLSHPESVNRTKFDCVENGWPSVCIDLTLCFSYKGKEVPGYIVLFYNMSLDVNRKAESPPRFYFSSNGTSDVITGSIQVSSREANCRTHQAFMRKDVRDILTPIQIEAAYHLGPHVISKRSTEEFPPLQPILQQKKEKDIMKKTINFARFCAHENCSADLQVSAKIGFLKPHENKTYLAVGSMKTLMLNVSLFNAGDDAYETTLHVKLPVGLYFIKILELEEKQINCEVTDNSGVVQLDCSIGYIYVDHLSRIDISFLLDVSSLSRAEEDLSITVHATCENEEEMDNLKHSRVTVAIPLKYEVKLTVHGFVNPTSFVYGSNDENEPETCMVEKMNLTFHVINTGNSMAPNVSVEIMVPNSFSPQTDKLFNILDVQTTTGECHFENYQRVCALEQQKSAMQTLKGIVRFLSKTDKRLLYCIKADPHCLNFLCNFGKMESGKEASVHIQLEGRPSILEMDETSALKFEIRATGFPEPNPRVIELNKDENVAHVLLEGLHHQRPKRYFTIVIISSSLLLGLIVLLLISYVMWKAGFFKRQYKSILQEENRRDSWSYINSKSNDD
T1 sequence (P05556 21-798): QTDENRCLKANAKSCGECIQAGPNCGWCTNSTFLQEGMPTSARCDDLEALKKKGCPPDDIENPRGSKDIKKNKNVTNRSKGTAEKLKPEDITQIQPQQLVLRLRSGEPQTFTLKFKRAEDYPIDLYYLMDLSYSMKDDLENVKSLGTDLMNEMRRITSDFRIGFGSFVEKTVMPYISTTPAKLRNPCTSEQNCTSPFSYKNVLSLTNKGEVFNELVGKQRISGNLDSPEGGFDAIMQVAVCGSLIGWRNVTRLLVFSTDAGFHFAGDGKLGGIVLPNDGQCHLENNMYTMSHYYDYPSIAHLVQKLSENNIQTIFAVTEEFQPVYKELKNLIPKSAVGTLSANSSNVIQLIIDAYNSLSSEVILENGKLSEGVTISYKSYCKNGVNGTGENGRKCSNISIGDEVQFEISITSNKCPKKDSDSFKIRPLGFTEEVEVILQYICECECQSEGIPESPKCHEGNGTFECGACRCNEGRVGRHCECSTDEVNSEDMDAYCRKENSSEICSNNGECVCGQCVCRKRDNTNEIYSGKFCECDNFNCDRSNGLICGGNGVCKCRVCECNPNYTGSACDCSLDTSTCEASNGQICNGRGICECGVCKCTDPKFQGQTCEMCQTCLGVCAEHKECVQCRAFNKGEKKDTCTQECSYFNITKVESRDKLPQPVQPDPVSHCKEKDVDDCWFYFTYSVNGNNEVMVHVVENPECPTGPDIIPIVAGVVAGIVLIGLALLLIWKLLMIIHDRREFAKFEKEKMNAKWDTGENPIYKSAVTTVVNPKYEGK
T2 sequence (P13612 34-1032): as the sequence (P13612 34-1032) above
T2 sequence (P05556 21-798): as the sequence (P05556 21-798) above

Usually EC50 stands for the concentration that produces a half-maximal response. Regarding `CC1(C)SCN(S(=O)(=O)c2cccnc2)[C@@H]1C(=O)N[C@@H](Cc1ccc(-n2c(=O)[nH]c3cccnc32)cc1)C(=O)O`, the results for the concentration giving a half-maximal response (EC50) on α4β1 [1] and on α4β1 [3] were 11.6 nM and 0.1 nM, respectively. Also, in test [2], the “fold less potent than Formula (I), FN capture” value was found to be 2.6 fold.

These data come from US20120059029A1 (Elan Pharmaceuticals, Inc., priority 2010, published 2012).
